Article PMC9334274, “A unique class of Zn^2+-binding serine-based PBPs underlies cephalosporin resistance and sporogenesis in Clostridioides difficile” (Nature Communications, 2022)
≈ marks a conversion by molar mass, not a printed value. Where “and” joins values, the source holds several entries; their conditions need not be identical. Equal entries are not always repeated. Entries after “also recorded” stand apart in the source; their conditions may differ. Where two headings read alike, the source gives them in different places.

How the values were obtained:
C. difficile PBP3 = type: binding, Clostridioides difficile R20291; settings: for PBP3 % inhibiton: 25 µM
Ldt2 = assay: Nitrocefin inhibition assay, Ldt2; type: biochemical, Clostridioides difficile R20291; settings: for Ldt2 % inhibiton: β-lactam at 25 uM, nitrocefin hydrolysis, two independent experiments, individual values; for Nitrcoefin hydrolysis vs inhibitor (reaction curve reading): Idt2, representative curve
Method: Reactions were performed in a 96-well polystyrene plate with a final volume of 60 μL at 37 °C in 20 mM Tris pH 7, 200 mM NaCl. […] Protein was then added to the well for a final concentration of 1 µM and incubated for 15 min at 37 °C. 1 µL of nitrocefin (Millipore Sigma) was then added to each well for a final concentration of 20 µM, and reaction progress was monitored using a BioTek Cytation 5 plate reader (BioTek Instruments) at 488 nm and 37 °C for 1 h. Reaction rates were normalized to the control (no inhibitor) for % inhibition values. Assays were performed in duplicate and mean % inhibition values was calculated.

[1] = tested on: C. difficile strain R20291; assay: Minimum inhibitory concentration (MIC) determination; settings: for MIC: Clostridioides difficile, R20291, 24 h
Ldt3 = type: biochemical, Clostridioides difficile R20291; settings: for Ldt3 % inhibiton / inhibition of Ldt3 (in words): 25 µM

CC1(C)S[C@@H]2[C@H](NC(=O)[C@H](N)c3ccccc3)C(=O)N2[C@H]1C(=O)O [ampicillin] was tested, and the PBP3 % inhibiton (C. difficile PBP3) was 92.7496% and 89.9467% and 91.5944%, the Ldt2 % inhibiton (Ldt2; listed as AMP, 25 µM) was 1.643% and 4.064% and the “MIC (X)” value [1] was 2. For the same molecule, the MIC [1] was 2 µg/mL (≈ 5.72 µM).
For C[C@H]1[C@H](NC(=O)/C(=N\OC(C)(C)C(=O)O)c2csc(N)n2)C(=O)N1S(=O)(=O)O [aztreonam], the MIC [1] was 256 µg/mL (≈ 588 µM).
CO/N=C(\C(=O)N[C@@H]1C(=O)N2C(C(=O)O)=C(/C=C\c3scnc3C)CS[C@H]12)c1csc(N)n1 [cefditoren] was tested, and the PBP3 % inhibiton (C. difficile PBP3) was 82.5587% and 73.9018% and 78.609%, the Ldt2 % inhibiton (Ldt2; listed as CDN, 25 µM) was 13.9657% and 18.7883% and the MIC [1] was 16 µg/mL (≈ 31.6 µM). The Ldt3 % inhibiton (Ldt3) was 72.482% and 72.4793% and the “inhibition of Ldt3 (in words)” value (Ldt3) was “best”.
In the case of CO/N=C(\C(=O)N[C@@H]1C(=O)N2C(C(=O)O)=C(COC(C)=O)CS[C@H]12)c1csc(N)n1 [cefotaxime], the PBP3 % inhibiton (C. difficile PBP3) is reported as 100.738% and 94.6733% and 99.7428%, the Ldt2 % inhibiton (Ldt2; listed as CTX, 25 µM) is reported as 12.8454% and 16.2577% and the “MIC (X)” value [1] is reported as 256. For the same molecule, the MIC [1] was 256 µg/mL (≈ 562 µM) and the Ldt3 % inhibiton (Ldt3) was 7.194% and 11.4876%.
CC(C)(O/N=C(\C(=O)N[C@@H]1C(=O)N2C(C(=O)[O-])=C(C[n+]3ccccc3)CS[C@H]12)c1csc(N)n1)C(=O)O [ceftazidime] was tested, and the PBP3 % inhibiton (C. difficile PBP3) was 100% and 96.9383% and the MIC [1] was 256 µg/mL (≈ 468 µM).
For Nc1nc(/C(=N/O)C(=O)N[C@@H]2C(=O)N3C(C(=O)O)=C(/C=C4\CCN([C@@H]5CCNC5)C4=O)CS[C@H]23)ns1 [ceftobiprole], the PBP3 % inhibiton (C. difficile PBP3) was 100% and 96.748%, the Ldt2 % inhibiton (Ldt2; listed as BPR, 25 µM) was 0% and 4.7546% and the MIC [1] was 2 µg/mL (≈ 3.74 µM). For the same molecule, the Ldt3 % inhibiton (Ldt3) was 8.0036% and 4.298%.
With CO/N=C(\C(=O)N[C@@H]1C(=O)N2C(C(=O)O)=C(CSc3nc(=O)c(=O)[nH]n3C)CS[C@H]12)c1csc(N)n1 [ceftriaxone] the PBP3 % inhibiton (C. difficile PBP3) was 101.93% and 95.7776% and 100% and the MIC [1] was 32 µg/mL (≈ 57.7 µM).
For CO/N=C(\C(=O)N[C@@H]1C(=O)N2C(C(=O)O)=C(COC(N)=O)CS[C@H]12)c1ccco1 [cefuroxime], the PBP3 % inhibiton (C. difficile PBP3) was 99.6269% and 93.7981% and 97.4091% and the MIC [1] was 128 µg/mL (≈ 302 µM).
CC1=C(C(=O)O)N2C(=O)[C@@H](NC(=O)[C@H](N)c3ccccc3)[C@H]2SC1 [cephalexin] was tested, and the “inhibition of PBP3 (in words)” value (C. difficile PBP3) was “little to no biochemical inhibition; also recorded: no detectable inhibition”, the “inhibition of Ldt2 (in words)” value (Ldt2; 25 µM) was “failing to inhibit” and the Ldt2 % inhibiton (Ldt2) was 0%. The MIC [1] was 4 µg/mL (≈ 11.5 µM), the Ldt3 % inhibiton (Ldt3) was 0% and the “inhibition of Ldt3 (in words)” value (Ldt3) was “failing to inhibit”.
With CC(=O)OCC1=C(C(=O)O)N2C(=O)[C@@H](NC(=O)[C@H](N)c3ccccc3)[C@H]2SC1 [cephaloglycin] the PBP3 % inhibiton (C. difficile PBP3) was 95.4184% and 89.9822% and 93.12%, the Ldt2 % inhibiton (Ldt2) was 0% and the MIC [1] was 256 µg/mL (≈ 631 µM). For the same molecule, the Ldt3 % inhibiton (Ldt3) was 9.353% and 13.9669%.
With CC(=O)OCC1=C(C(=O)O)N2C(=O)[C@@H](NC(=O)Cc3cccs3)[C@H]2SC1 [cephalothin] the PBP3 % inhibiton (C. difficile PBP3) was 97.9928% and 94.8412% and 96.842%, the Ldt2 % inhibiton (Ldt2) was 0% and the MIC [1] was 64 µg/mL (≈ 161 µM). For the same molecule, the Ldt3 % inhibiton (Ldt3) was 13.1295% and 19.9174%.
With Cc1onc(-c2ccccc2Cl)c1C(=O)N[C@@H]1C(=O)N2[C@@H]1SC(C)(C)[C@@H]2C(=O)O [cloxacillin] the PBP3 % inhibiton (C. difficile PBP3) was 82.7754% and 83.7053% and 84.4216%, the “Nitrcoefin hydrolysis vs inhibitor (reaction curve reading)” value (“Nitrcoefin hydrolysis vs inhibitor” below) (Ldt2; time 0 s) was 0.044 and the “Nitrcoefin hydrolysis vs inhibitor” value (Ldt2; time 300 s) was 0.046. The “Nitrcoefin hydrolysis vs inhibitor” value (Ldt2; time 600 s) was 0.048, the “Nitrcoefin hydrolysis vs inhibitor” value (Ldt2; time 900 s) was 0.05 and the “Nitrcoefin hydrolysis vs inhibitor” value (Ldt2; time 1200 s) was 0.051. For the same molecule, the “Nitrcoefin hydrolysis vs inhibitor” value (Ldt2; time 1500 s) was 0.053, the “Nitrcoefin hydrolysis vs inhibitor” value (Ldt2; time 1800 s) was 0.054 and the “Nitrcoefin hydrolysis vs inhibitor” value (Ldt2; time 2100 s) was 0.056. The “Nitrcoefin hydrolysis vs inhibitor” value (Ldt2; time 2400 s) was 0.057, the Ldt2 % inhibiton (Ldt2; listed as ClX, 25 µM) was 15.534% and 20.6288% and the MIC [1] was 16 µg/mL (≈ 36.7 µM). For the same molecule, the Ldt3 % inhibiton (Ldt3) was 89.2086% and 94.2975%, the “inhibition of Ldt3 (in words)” value (Ldt3) was “best” and the “Nitrcoefin hydrolysis vs inhibitor” value (Ldt3; time 0 s) was 0.044. For the same molecule, the “Nitrcoefin hydrolysis vs inhibitor” value (Ldt3; time 300 s) was 0.045, the “Nitrcoefin hydrolysis vs inhibitor” value (Ldt3; time 600 s) was 0.045 and the “Nitrcoefin hydrolysis vs inhibitor” value (Ldt3; time 900 s) was 0.046. For the same molecule, the “Nitrcoefin hydrolysis vs inhibitor” value (Ldt3; time 1200 s) was 0.046, the “Nitrcoefin hydrolysis vs inhibitor” value (Ldt3; time 1500 s) was 0.046 and the “Nitrcoefin hydrolysis vs inhibitor” value (Ldt3; time 1800 s) was 0.046. For the same molecule, the “Nitrcoefin hydrolysis vs inhibitor” value (Ldt3; time 2100 s) was 0.046 and the “Nitrcoefin hydrolysis vs inhibitor” value (Ldt3; time 2400 s) was 0.046.
With C[C@@H](O)[C@H]1C(=O)N2C(C(=O)O)=C(S[C@@H]3CN[C@H](CNS(N)(=O)=O)C3)[C@H](C)[C@H]12 [doripenem] the PBP3 % inhibiton (C. difficile PBP3) was 95.9747% and 95.7759% and 97.3818%, the “inhibition of Ldt2 (in words)” value (Ldt2; 25 µM) was “best inhibitors of Ldt2” and the “Nitrcoefin hydrolysis vs inhibitor” value (Ldt2; time 0 s) was 0.043. For the same molecule, the “Nitrcoefin hydrolysis vs inhibitor” value (Ldt2; time 300 s) was 0.044, the “Nitrcoefin hydrolysis vs inhibitor” value (Ldt2; time 600 s) was 0.045 and the “Nitrcoefin hydrolysis vs inhibitor” value (Ldt2; time 900 s) was 0.045. For the same molecule, the “Nitrcoefin hydrolysis vs inhibitor” value (Ldt2; time 1200 s) was 0.045, the “Nitrcoefin hydrolysis vs inhibitor” value (Ldt2; time 1500 s) was 0.045 and the “Nitrcoefin hydrolysis vs inhibitor” value (Ldt2; time 1800 s) was 0.046. For the same molecule, the “Nitrcoefin hydrolysis vs inhibitor” value (Ldt2; time 2100 s) was 0.046, the “Nitrcoefin hydrolysis vs inhibitor” value (Ldt2; time 2400 s) was 0.047 and the Ldt2 % inhibiton (Ldt2; listed as DOR, 25 µM) was 92.8305% and 93.0982%. For the same molecule, the MIC [1] was 1 µg/mL (≈ 2.38 µM), the Ldt3 % inhibiton (Ldt3) was 49.0108% and 45.9504% and the “Nitrcoefin hydrolysis vs inhibitor” value (Ldt3; time 0 s) was 0.045. For the same molecule, the “Nitrcoefin hydrolysis vs inhibitor” value (Ldt3; time 300 s) was 0.046, the “Nitrcoefin hydrolysis vs inhibitor” value (Ldt3; time 600 s) was 0.048 and the “Nitrcoefin hydrolysis vs inhibitor” value (Ldt3; time 900 s) was 0.049. For the same molecule, the “Nitrcoefin hydrolysis vs inhibitor” value (Ldt3; time 1200 s) was 0.05, the “Nitrcoefin hydrolysis vs inhibitor” value (Ldt3; time 1500 s) was 0.051 and the “Nitrcoefin hydrolysis vs inhibitor” value (Ldt3; time 1800 s) was 0.052. The “Nitrcoefin hydrolysis vs inhibitor” value (Ldt3; time 2100 s) was 0.052 and the “Nitrcoefin hydrolysis vs inhibitor” value (Ldt3; time 2400 s) was 0.053.
C[C@@H](O)[C@H]1C(=O)N2C(C(=O)O)=C(SCCN=CN)C[C@H]12 [imipenem] was tested, and the PBP3 % inhibiton (C. difficile PBP3) was 83.9601% and 87.3785% and 88.7659%, the Ldt2 % inhibiton (Ldt2; listed as IMI, 25 µM) was 15.7605% and 16.7178% and the MIC [1] was 128 µg/mL (≈ 428 µM).
In the case of C[C@@H](O)[C@H]1C(=O)N2C(C(=O)O)=C(S[C@@H]3CN[C@H](C(=O)N(C)C)C3)[C@H](C)[C@H]12 [meropenem], the PBP3 % inhibiton (C. difficile PBP3) is reported as 95.105% and 95.5466% and 97.2164%, the “inhibition of Ldt2 (in words)” value (Ldt2; 25 µM) is reported as “best inhibitors of Ldt2” and the Ldt2 % inhibiton (Ldt2; listed as MEM, 25 µM) is reported as 88.3495% and 88.0368%. The MIC [1] was 4 µg/mL (≈ 10.4 µM) and the Ldt3 % inhibiton (Ldt3) was 25.5396% and 27.8512%.
For COc1cccc(OC)c1C(=O)N[C@@H]1C(=O)N2[C@@H]1SC(C)(C)[C@@H]2C(=O)O [methicillin], the PBP3 % inhibiton (C. difficile PBP3) was 92.4606% and 92.3713% and 94.0819% and the MIC [1] was 8 µg/mL (≈ 21 µM).
CC1(C)S[C@@H]2[C@H](NC(=O)Cc3ccccc3)C(=O)N2[C@H]1C(=O)O [penicillin G] was tested, and the PBP3 % inhibiton (C. difficile PBP3) was 94.9098% and 94.1115% and 95.4645%, the Ldt2 % inhibiton (Ldt2; listed as EM, 25 µM) was 2.091% and 5.675% and the “MIC (X)” value [1] was 1. For the same molecule, the MIC [1] was 1 µg/mL (≈ 2.99 µM) and the Ldt3 % inhibiton (Ldt3) was 58.9928% and 66.7769%.
In the case of CCN1CCN(C(=O)N[C@@H](C(=O)N[C@@H]2C(=O)N3[C@@H]2SC(C)(C)[C@@H]3C(=O)O)c2ccccc2)C(=O)C1=O [piperacillin], the PBP3 % inhibiton (C. difficile PBP3) is reported as 92.03% and 94.7239% and 96.6236%, the “inhibition of Ldt2 (in words)” value (Ldt2; 25 µM) is reported as “best inhibitors of Ldt2” and the Ldt2 % inhibiton (Ldt2; listed as PIP, 25 µM) is reported as 57.879% and 59.7393%. For the same molecule, the MIC [1] was 16 µg/mL (≈ 30.9 µM) and the Ldt3 % inhibiton (Ldt3) was 51.7086% and 57.3554%.
